Results: article PMC12177760, “In Silico Discovery of a Novel Antiviral Scaffold for SARS-CoV‑2 Targeting the Spike Glycoprotein through the Fatty Acid Binding Pocket” (ACS Omega, 2025)

Columns and labels:
[1] = tested on: SARS-CoV-2 original Wuhan strain (INMI1 P4) in Vero E6 cells; test: microbe, parasite or virus in culture; type: cell-based; conditions: for inhibition at 22 µM: Severe acute respiratory syndrome coronavirus 2, Vero C1008; for inhibition at 22 µM / inhibition at 33 µM: read-out: inhibition of viral induced CPE; for inhibition at 33 µM: Severe acute respiratory syndrome coronavirus 2, Vero C1008, 72 h
[2] = tested on: RBD-ACE2 binding; conditions: ref not given, cited from earlier work
[3] = target: S-ACE2 interaction (SARS-CoV-2 S protein trimer, Wuhan strain, with biotinylated-ACE2) (Severe acute respiratory syndrome coronavirus 2, UniProt P0DTC2); test: biochemical; type: binding; conditions: for inhibition of the S-ACE2 interaction: 200 μM
[4] = tested on: SARS-CoV-2 Wuhan strain; type: cell-based
[5] = in vitro; conditions: African green monkey
[6] = tested on: Vero E6 cells; conditions: 200 μM
[7] = tested on: SARS-CoV-2 Wuhan strain; type: cell-based; remark: listed apart in the source

## CC(=O)c1ccc(N2CCN(Cn3nc4cc(C)c5ccccc5n4c3=S)CC2)cc1 [compound 1]
[1]
  inhibition at 22 µM: 10%

## CC(NC(=O)CCC(=O)N1CCN(c2ccccc2)CC1)c1ccc(-n2cncn2)cc1 (stereo not shown) [compound 31]
[1]
  inhibition at 33 µM: 8%

## CC(OC(=O)CCC(=O)N1CCC(c2ccccc2)=N1)c1ccc(-n2cncn2)cc1 (stereo not shown) [compound 34]
[1]
  inhibition at 33 µM: 19%

## CCCCC/C=C\C/C=C\CCCCCCCC(=O)O [LA, linoleic acid, reference compound]
[2]; 8.9 mM, in vitro assays
  inhibition of the RBD-ACE2 binding: 100%
[3]
  inhibition at 200 µM: 84%

## CCn1c2ccccc2c2cc(NC(=O)c3ccc(OCC(N)=O)cc3)ccc21 [compound 4]
[3]
  inhibition at 200 µM: 28%
[1]; 67 μM
  reduction in viral induced CPE: over 10%

## O=C(CCc1nc2ccccc2s1)N1CCC(CCc2ccc(O)cc2)CC1 [compound 9]
[3]
  inhibition at 200 µM: 20%

## CC(NC(=O)CCC(=O)N1CCC(c2ccccc2)=N1)c1ccc(-c2ccccc2)cc1 (stereo not shown) [compound 32]
[1]
  inhibition at 33 µM: 27%

## Cc1nc(-c2ccc(C(C)NC(=O)CCC(=O)N3CCC(c4ccccc4)=N3)cc2)cs1 (stereo not shown) [compound 20]
[1]
  inhibition at 33 µM: 34%

## CC(NC(=O)CCC(=O)N1CCC(c2ccccc2)=N1)c1ccc(-n2cncn2)cc1 (stereo not shown) [compound 17]
[4]
  decrease in the number of infectious virions released: 81%
[5]
  CC50: 90 µM
[3]
  inhibition at 200 µM: ~20%
  inhibition of the S-ACE2 interaction: surpassed PEA
[6]
  cytotoxicity: strong cytotoxicity
[1]; 2.5 μM
  reduction in viral induced CPE: over 10%
[1]
  inhibition at 33 µM: 23%

## CS(=O)(=O)N1CCCc2cc(-c3csc(-c4cccc(C(N)=O)c4)n3)ccc21 [compound 7]
[3]
  inhibition at 200 µM: 20%

## O=C(Nc1nc(-c2ccc3c(c2)CCC3)cs1)c1ccc(CSc2nnc[nH]2)cc1 [compound 12]
[3]
  inhibition of the S-ACE2 interaction: surpassed PEA

## CCCCCCCCCCCCCCCC(=O)NCCO [PEA, palmitoylethanolamide, reference compound]
[2]
  reduction of RBD binding with ACE2: ~50%
[3]
  inhibition at 200 µM: 17%

## N#Cc1ccc(C2(NC(=O)CCC(=O)N3CCC(c4ccccc4)=N3)CC2)cc1 [compound 35]
[1]
  inhibition at 33 µM: 16%

## CC(c1ccc(-n2cncn2)cc1)N(C)C(=O)CCC(=O)N1CCC(c2ccccc2)=N1 (stereo not shown) [compound 36]
[4]
  PFU/mL, drug: 2.49 × 10^7 PFU/mL
  reduction of replication-capable lytic virions (TCID50): 90%
[7]
  detected viral genomic copies: 16.9 copies/20 μL
[7]; 33 μM
  reduction in number of viral genome copies in the supernatant: 89%
[1]
  inhibition at 33 µM: 91%
[1]; Severe acute respiratory syndrome coronavirus 2, Vero C1008, read-out: EC50 (inhibition of SARS-CoV-2-induced CPE)
  EC50: 0.29 µM

## Cc1cccc(OCC(=O)N2CC=C(c3c[nH]c4ccccc34)CC2)c1C [compound 15]
[3]
  inhibition at 200 µM: 20%
[1]
  inhibition at 22 µM: 10%

## Cc1ccc(C(C)N(C)C(=O)CCC(=O)N2CCC(c3ccccc3)=N2)cc1 (stereo not shown) [compound 27]
[1]
  antiviral activity (qualitative structure-activity relationship, CPE): activity maintained
